Test results published in US20260258446A1, “SMALL MOLECULE ENHANCERS FOR ADENO-[…] PRODUCTION” (priority 2023, published 2026).
Structures can show the parent of a compound that is named as a salt.

Experiments:
[1] = test system: AAV8 production in Viral Production 2.0 cells (293-VP 2.0); assay: AAV8 production by transient transfection, genome titer by dPCR; assay type: cell-based, human
Protocol: Candidate small molecules were selected via literature-based searches and encompassed general classes of epigenetic modifiers, PI3K inhibitors, cell cycle modulators, innate immune activators/inhibitors, proteosome inhibitors, kinase inhibitors, free fatty acids, endoplasmic reticulum stress inducers/inhibitors, and autophagy activators/inhibitors. Various candidate small molecule were analyzed in AAV2 or AAV8 production. The initial test concentrations of each small molecule were determined by previous uses of the molecules found in the literature for a variety of applications. For each candidate small molecule, cells were triple transfected with three plasmids encoding the rep/cap genes, gene of interest flanked by […] terminal repeats (ITR) and adenovirus helper molecules. The rep/cap plasmid encoded either AAV2 or AAV8 capsids. The plasmid DNA (pDNA) was combined with the TransIT-VirusGEN® transfection reagent and added to 293-derived suspension cells. The cells were then immediately treated with the small molecule. AAV production occurred over the course of 72 hours, after which virus was harvested. Genomes were assessed by digital PCR (dPCR), and capsids by a specific ELISA or homogeneous based luciferase assay utilizing capsid specific antibodies. The percentage of full capsids was calculated by dividing the total number of genomes by the total number of capsids. A small molecule was considered a successful enhancer of AAV production if it increased AAV as measured by viral genomes 1.5-fold over an untreated control and was not detrimental to the percentage of full capsids, or if it increased the percentage of full capsids 1.5-fold over an untreated control and was not detrimental to the total number of produced AAV as measured by viral genomes. The experimental design may identify small molecules that enhance AAV production.
Viral Production Cells 2.0 (293-VP 2.0; Thermo Fisher Cat. No. A49784) were maintained in Viral Production Media (VPM; Thermo Fisher Cat. No. A4817901) supplemented with 4 mM GlutaMAX™ (Thermo Fisher Cat. No. 35050061). Expi293F™ Cells (Thermo Fisher Cat. No. A14527) were maintained in Expi293™ Expression Medium (Thermo Fisher Cat. No. A1435101). Both cell lines were maintained at the supplier recommended 8% CO2 and 37° C. on a 2.5 cm orbital shaker at 125 rpm.
The day before transfection, cells were passaged to ensure the cells were actively dividing and would reach a density of 4.0-5.0×10^6 cells/mL the day of transfection. The day of transfection, cells were seeded in 6-well non-tissue culture treated plates (Corning, Cat. No. 351146) at a density of 3.0×10^6 cells/mL. A 1 mg/mL DNA solution composed of a 1:1:1 plasmid concentration ratio of a transfer vector (Agilent, Cat. No. 240074-51), an AAV2 RepCap Vector (Aldevron, Cat. No. pALD-AAV2) or an AAV5 RepCap Vector (Aldevron, Cat. No. pALD-AAV5) or an AAV8 RepCap vector (Genemedi, Cat. No. P-RC09) or an AAV9 RepCap vector (Genemedi, Cat. No. p-RC13), and a helper vector (Agilent Cat. No. 240071-54) was formed in water. For each milliliter of culture, 3 μL of TransIT-VirusGEN® (Mirus Bio LLC, Cat. No. MIR 6700) and 2 μg of DNA were added to a final volume of 100 μL Phosphate-buffered saline (PBS; Corning, Cat. No. 21-040-CV) for a final transfection reagent to DNA ratio of 1.5:1. This mixture was incubated at room temperature for 30 minutes to allow transfection complexes to form, after which 100 μL was added per milliliter of culture for a final complexation volume of 10%. In some instances, cells were transfected with 1 μL FectoVIR®-AAV (Polyplus, Cat. No. 101000044) per million cells and 1 μg DNA per million cells for a final transfection reagent to DNA ratio of 1:1, and a final complexation volume of 5%. In some instances, cells were transfected with 1 μL PEIPro® (Polyplus, Cat. No. 101000017) per million cells and 1 μg DNA per million cells for a final transfection reagent to DNA ratio of 1:1, and a final complexation volume of 10%. […]

[2] = test system: AAV2 or AAV8 production in 293-derived suspension cells; assay: cells; assay type: cell-based, human
Protocol: Various candidate small molecule were analyzed in AAV2 or AAV8 production. […] For each candidate small molecule, cells were triple transfected with three plasmids encoding the rep/cap genes, gene of interest flanked by internal terminal repeats (ITR) and adenovirus helper molecules. The rep/cap plasmid encoded either AAV2 or AAV8 capsids. The plasmid DNA (pDNA) was combined with the TransIT-VirusGEN® transfection reagent and added to 293-derived suspension cells. The cells were then immediately treated with the small molecule. AAV production occurred over the course of 72 hours, after which virus was harvested. Genomes were assessed by digital PCR (dPCR), and capsids by a specific ELISA or homogeneous based luciferase assay utilizing capsid specific antibodies. The percentage of full capsids was calculated by dividing the total number of genomes by the total number of capsids. A small molecule was considered a successful enhancer of AAV production if it increased AAV as measured by viral genomes 1.5-fold over an untreated control and was not detrimental to the percentage of full capsids, or if it increased the percentage of full capsids 1.5-fold over an untreated control and was not detrimental to the total number of produced AAV as measured by viral genomes. […]

[3] = from about 0.5 μM to about 40 μM

CC[C@@H]1C(=O)N(C)c2cnc(Nc3ccc(C(=O)NC4CCN(C)CC4)cc3OC)nc2N1C1CCCC1 [Compound A, (R)-4-((8-cyclopentyl-7-ethyl-5-methyl-6-oxo-5,6,7,8-tetrahydropteridin-2-yl)amino)-3-methoxy-N-(1-methylpiperidin-4-yl)benzamide]
Successful enhancer of AAV8 production (genomes or % full capsids 1.5-fold over untreated control) ([1]; from about 0.025 μM to about 1 μM): Successful enhancers

CN[C@H]1CCc2cc(OC)c(OC)c(OC)c2-c2ccc(OC)c(=O)cc21 [Compound B, (S)-1,2,3,10-tetramethoxy-7-(methylamino)-6,7-dihydrobenzo[a]heptalen-9 (5H)-one]
Successful enhancer of AAV8 production (genomes or % full capsids 1.5-fold over untreated control) ([1]; from about 0.0673 μM to about 0.2019 μM): Successful enhancers

CC(=O)O[C@@]12CO[C@@H]1C[C@H](O)[C@@]1(C)C(=O)[C@H](O)C3=C(C)[C@@H](OC(=O)[C@H](O)[C@@H](NC(=O)OC(C)(C)C)c4ccccc4)C[C@@](O)([C@@H](OC(=O)c4ccccc4)[C@H]21)C3(C)C [Compound C, [(1S,2S,3R,4S,7R,9S, 10S, 12R, 15S)-4-acetyloxy-1,9,12-trihydroxy-15-[(2R,3S)-2-hydroxy-3-[(2-methylpropan-2-yl)oxycarbonylamino]-3-phenylpropanoyl]oxy-10,14,17,17-tetramethyl-11-oxo-6-oxatetracyclo[11.3.1.0^3,10.0^4,7]heptadec-13-en-2-yl]benzoate]
Successful enhancer of AAV8 production (genomes or % full capsids 1.5-fold over untreated control) ([1]; from 1 μM to about 20 μM): Successful enhancers
Increase in AAV8 titers ("Top Hits") ([1]; from about 1 μM to about 20 μM): highest increase in AAV8 titers

CCn1cc(-c2ccnc3[nH]c(-c4cccc(CN(C)C)c4)cc23)c(-c2ccc(NC(=O)N(C)C)cc2)n1 [Compound D, 3-(4-(4-(2-(3-((dimethylamino)methyl)phenyl)-1H-pyrrolo[2,3-b]pyridin-4-yl)-1-ethyl-1H-pyrazol-3-yl)phenyl)-1,1-dimethylurea]
fold induction at 0.05 µM ([2]; Homo sapiens, 72 h, read-out: Fold increase in genomes over no enhancer control): 1.57 to 1.91
Successful enhancer of AAV8 production (genomes or % full capsids 1.5-fold over untreated control) ([1]; about 0.05 μM): Successful enhancers

CC(=O)O[C@H]1C(=O)[C@@]2(C)[C@H]([C@H](OC(=O)c3ccccc3)[C@]3(O)C[C@H](OC(=O)[C@H](O)[C@@H](NC(=O)c4ccccc4)c4ccccc4)C(C)=C1C3(C)C)[C@]1(OC(C)=O)CO[C@@H]1C[C@@H]2O [Compound F, [(1S,2S,3R,4S,7R,9S,10S,12R, 15S)-4,12-diacetyloxy-15-[(2R,3S)-3-benzamido-2-hydroxy-3-phenylpropanoyl]oxy-1,9-dihydroxy-10,14,17,17-tetramethyl-11-oxo-6-oxatetracyclo[11.3.1.0^3,10.0^4,7]heptadec-13-en-2-yl]benzoate]
Increase in AAV8 titers ("Top Hits") [1, 3]: highest increase in AAV8 titers
Successful enhancer of AAV8 production (genomes or % full capsids 1.5-fold over untreated control) [1, 3]: Successful enhancers

CC(=O)NCC(=O)N1[C@@H]2CC[C@H]1c1ccc(Nc3ncc(C(F)(F)F)c(NC4CCC4)n3)cc12 [Compound G, N-[2-[(1R,8S)-4-[[4-(cyclobutylamino)-5-(trifluoromethyl)pyrimidin-2-yl]amino]-11-azatricyclo[6.2.1.0^2,7]undeca-2 (7),3,5-trien-11-yl]-2-oxoethyl]acetamide]
Successful enhancer of AAV8 production (genomes or % full capsids 1.5-fold over untreated control) ([1]; from about 0.02 μM to about 0.5 μM): Successful enhancers

O=C(CCCCCCC(=O)Nc1ccccc1)NO [SAHA, suberoylanilide hydroxamic acid]
Successful enhancer of AAV8 production (genomes or % full capsids 1.5-fold over untreated control) ([1]; from about 0.5 μM to about 1 μM): Successful enhancers

CCC(=O)[O-].[Na+] [Sodium Propionate]
Fold increase in genomes over no enhancer control ([2]; 5000 μM-10000 μM): 1.20-1.48 fold

CCCC(CCC)C(=O)[O-].[Na+] [Valproic Acid Sodium Salt]
Successful enhancer of AAV8 production (genomes or % full capsids 1.5-fold over untreated control) ([1]; from about 400 μM to about 2500 μM): Successful enhancers

CC[C@]1(O)C[C@@H]2CN(CCc3c([nH]c4ccccc34)[C@@](C(=O)OC)(c3cc4c(cc3OC)N(C)[C@H]3[C@@](O)(C(=O)OC)[C@H](OC(C)=O)[C@]5(CC)C=CCN6CC[C@]43[C@@H]65)C2)C1 [Vinblastine Sulfate]
Successful enhancer of AAV8 production (genomes or % full capsids 1.5-fold over untreated control) ([1]; from about 2.5 μM to about 15 μM): Successful enhancers
